Format in all cases: cell-based
One experiment concerns GB-1. The experiment can be described thus: Cell viability (Promega CellTiter-Glo), inhibitory effect on tumor cell line. Conditions: GB-1, human glioblastoma cell; insensitive group; 3-4 days of culture; n=3.
For the next experiment, the system named is SW48. The description is as above. Conditions: SW48, human colon adenocarcinoma cell; sensitive group; 3-4 days of culture; n=3. As to the method: Cell viability was detected using the Promega CellTiter-Glo kit, cell viability was determined by directly measuring intracellular ATP content. […] The name, source and culture conditions of each tumor cell line were as follows: Cell line SW48 (ATCC, No. CCL-231) was cultured in 10% fetal bovine serum-containing Leibovitz's L-15 medium (+P/S).

The test system of another experiment is NCI-H82. Described as above. Conditions: NCI-H82, human small cell lung cancer cell; sensitive group; 3-4 days of culture; n=3. As to the method: Cell viability was detected using the Promega CellTiter-Glo kit, cell viability was determined by directly measuring intracellular ATP content. […] The name, source and culture conditions of each tumor cell line were as follows: […] HTB-175) was cultured in 10% fetal bovine serum-containing RPMI1640 medium (+P/S).

For a further experiment, the system named is G-401. Described as above. The following applies: G-401, human renal carcinoma Wilms cell; sensitive group; 3-4 days of culture; n=3. As to the method:
Cell viability was detected using the Promega CellTiter-Glo kit, cell viability was determined by directly measuring intracellular ATP content. […] The name, source and culture conditions of each tumor cell line were as follows: Cell line G-401 (ATCC, No. CRL-1441) was cultured in 10% fetal bovine serum-containing McCoy's 5a medium (+P/S).

In experiment [1] the test system is control NCI-H82 cell (NCI-H82 (Con)). The experiment can be described thus: Cell viability (Promega CellTiter-Glo) on control NCI-H82 cell. The following applies: Homo sapiens; NCI-H82 transfected with empty virus vector without NNMT gene; n=3. The source says: (§1) The NNMT protein-overexpressing NCI-H82 cell (NCI-H82 (ov-NNMT)) was obtained by inserting the NNMT gene into NCI-H82 cell using a viral vector. The control NCI-H82 cell (NCI-H82 (Con)) was obtained by transfecting NCI-H82 cell with empty virus vector without carrying NNMT gene.
(§2) The expressing level of NNMT protein in control NCI-H82 cell (NCI-H82 (Con)) and NNMT protein-overexpressing NCI-H82 cell (NCI-H82 (ov-NNMT)) was detected using Western Blot assay (as shown in FIG. 7), it could be seen from FIG. 7 that the NNMT protein in NCI-H82 (ov-NNMT) cell was overexpressed compared with the expression level of NNMT protein in NCI-H82 (Con) cell.
(In general: Cellular ATP, detected with luciferase, serves as a proxy for viable cell number.)

The test system of experiment [2] is NNMT protein-overexpressing NCI-H82 cell (NCI-H82 (ov-NNMT)). Put plainly: Cell viability (Promega CellTiter-Glo) on NNMT protein-overexpressing NCI-H82 cell. Conditions: Homo sapiens; NCI-H82 overexpressing NNMT protein (NNMT gene inserted by viral vector); n=3.
Text: as §1, §2

The subject of a further experiment is SF126. Put plainly: Cell viability (Promega CellTiter-Glo), inhibitory effect on tumor cell line. The following applies: SF-126; SF126, human glioblastoma multiforme cell; insensitive group; 3-4 days of culture; n=3. On the procedure:
Cell viability was detected using the Promega CellTiter-Glo kit, cell viability was determined by directly measuring intracellular ATP content. […] The name, source and culture conditions of each tumor cell line were as follows: Cell line SF126 (JCRB, No. IFO50286) was cultured in 10% fetal bovine serum-containing EMEM medium (+P/S).

The test system of another experiment is MDA-MB-453. Described as above. The following applies: Homo sapiens; MDA-MB-453, breast cancer cell; sensitive group; 3-4 days of culture; n=3. As to the method: Cell viability was detected using the Promega CellTiter-Glo kit, cell viability was determined by directly measuring intracellular ATP content. […] The name, source and culture conditions of each tumor cell line were as follows: Cell line MDA-MB-453 (ATCC, No. HTB-131) was cultured in 10% fetal bovine serum-containing Leibovitz's L-15 medium (+P/S).

In another experiment the test system is CFPAC-1. The description is as above. The following applies: CFPAC-1, human pancreatic cancer cell; insensitive group; 3-4 days of culture; n=3. On the procedure:
Cell viability was detected using the Promega CellTiter-Glo kit, cell viability was determined by directly measuring intracellular ATP content. […] The name, source and culture conditions of each tumor cell line were as follows: Cell line CFPAC-1 (ATCC, No. CRL-1918) was cultured in 10% fetal bovine serum-containing IMDM medium (+P/S).

Another experiment relates to WSU-DLCL2. Described as above. The following applies: WSUDLCL2; WSU-DLCL2, human diffuse large B-cell lymphoma; sensitive group; 3-4 days of culture; n=3. As to the method: Cell viability was detected using the Promega CellTiter-Glo kit, cell viability was determined by directly measuring intracellular ATP content. […] The name, source and culture conditions of each tumor cell line were as follows: Cell line WSU-DLCL2 (DSMZ, No. ACC-575) was cultured in 10% fetal bovine serum-containing RPMI1640 medium (+P/S).

A further experiment concerns 786-O. The experiment is described as above. Conditions: Homo sapiens, 786-0, clear cell renal cell adenocarcinoma cell, insensitive group, 3-4 days of culture, n=3. As to the method: Cell viability was detected using the Promega CellTiter-Glo kit, cell viability was determined by directly measuring intracellular ATP content. […] The name, source and culture conditions of each tumor cell line were as follows: Cell line 786-O (ATCC, No. CRL-1932) was cultured in 10% fetal bovine serum-containing RPMI1640 medium (+P/S).

Where only a bound is given, the exact number is not on record here.

The term IC50 denotes the concentration that inhibits the measured activity by half. As to `O=C1OCCN1/N=C/c1ccc([N+](=O)[O-])o1` [Furazolidone, furazolidone], the IC50 turned out to be 38.4 µM in the experiment with GB-1; 8.23 µM in the experiment with SW48; 8.31 µM in the experiment on NCI-H82; 5.77 µM with G-401; 8.22 µM in experiment [1]; 18.5 µM in [2]. Besides, the 50% inhibitory concentration (IC50) with SF126 is over 50 µM; with MDA-MB-453 it was 7.73 µM; with CFPAC-1 it was over 50 µM; in the experiment on WSU-DLCL2 it was 9.04 µM.

Take `O=C(N/N=C/c1ccc([N+](=O)[O-])o1)c1ccc(O)cc1` [Nifuroxazide, nifuroxazide]: the IC50 was 20 µM in the experiment on GB-1; 4.05 µM in the experiment with SW48; 2.48 µM with NCI-H82; 3.22 µM in the experiment with G-401; 2.41 µM in experiment [1]; over 50 µM in the experiment with 786-O. The IC50 in [2] was 5.01 µM; in the experiment on SF126, 16.4 µM; in the experiment with MDA-MB-453, 2.78 µM; in the experiment on CFPAC-1, over 50 µM; with WSU-DLCL2, 4.22 µM.

Source of the values: US20240350460A1, “APPLICATION OF HYDRAZIDE COMPOUND IN TUMOR TREATMENT” (NANJING SHIJIANG MEDICINE TECHNOLOGY CO., LTD, priority 2021, published 2024).
